# Assay results as given in paper PMC11640836, “Aminomethylmorpholino Nucleosides as Novel Inhibitors of PARP1 and PARP2: Experimental and Molecular Modeling Analyses of Their Selectivity and Mechanism of Action” (International Journal of Molecular Sciences, 2024).
# Where two headings read alike, the source gives them in different places.
# Key:
# [1] = target: T1, PARP1-DNA complex (Homo sapiens, UniProt P09874); experiment: Fluorescence anisotropy titration of FAM-labeled gap-DNA with PARP1; assay type: binding; settings: 120 µM inhibitor, absence vs presence
# T1 construct: made in house; host or cells: insect cells
# Method: (§1) Fluorescence anisotropy measurements of FAM-labeled DNA were performed in the absence and presence of various concentrations of PARP1/PARP2 with or without sub-saturating concentrations of an inhibitor. […] The averaged values were used for the final plot, and EC50 values were determined with MARS Data Analysis software version 3.00 (BMG LABTECH, Ortenberg, Germany). The data were plotted (F vs. C) and fitted to a four-parameter equation, F = F0 + (F∞ − F0)/[1 + (EC50/C)^n], where F is the measured fluorescence anisotropy of a solution containing the labeled DNA at a given concentration (C) of protein, F0 is the fluorescence anisotropy of the solution of the labeled DNA alone, F∞ is the fluorescence anisotropy of the labeled DNA saturated with the protein, EC50 is the concentration of the protein where F − F0 = (F∞ − F0)/2, and n is the Hill coefficient, which denotes the slope of the nonlinear curve. The apparent rate constants (kobs values) of dissociation of the PARP1 (PARP2)-DNA complex during the PARylation reaction performed in the absence or presence of an inhibitor were estimated by fluorescence anisotropy measurements, as described previously. […] The kinetic data were fitted to an exponential curve to calculate kobs with MARS Data Analysis software. […]
# [2] = target: T1, PARP1-DNA complex; experiment: AutoPARylation-induced dissociation of the PARP1-DNA complex (fluorescence anisotropy kinetics); assay type: biochemical; settings: 120 µM H2N-Mor-T or 400 nM olaparib
# Method: as §1
# [3] = target: T2, PARP2 (supplemented with HPF1 or not) (Mus musculus, UniProt O88554); experiment: PARP2 inhibition in the absence and presence of HPF1 (automodification, SDS-PAGE); assay type: biochemical, murine; settings: 500 nM PARP2, 1 µM HPF1
# T2 construct: made in house; host or cells: insect cells (PARP2)
# Method: PARP1/PARP2 autopoly(ADP-ribosyl)ation was performed in a standard 20 μL reaction mixture containing 50 mM of Tris-HCl, a pH of 8.0, 100 mM of NaCl, 10 mM of MgCl2, 1 mM of DTT, 10 µM of [^32P]NAD^+, 1 µM of gap-DNA (a 32-mer duplex with a medially located 1-nucleotide gap), 500 nM of PARP1/PARP2 (supplemented with 1 µM of HPF1 or not), and an inhibitor of interest at concentrations specified in Figure 4 and Figure S7. The reaction was initiated by adding a mixture of [^32P]NAD^+ and DNA to a protein-inhibitor mixture pre-assembled on ice. After incubating the mixtures at 37 °C for the indicated time periods, the reactions were terminated by the addition of an SDS-PAGE sample buffer and heating for 2 min at 90 °C. The reaction products were analyzed using 10% SDS-PAGE with the subsequent phosphor imaging of a Coomassie brilliant blue stained gel. Protein bands labeled with [^32P]ADP-ribose were quantified using Quantity One 4.6.7 Basic software. The residual activity (%) was determined as the level of PARP automodification in the presence of an inhibitor normalized to the respective level in the control sample containing no inhibitor.
# [4] = target: T3, PARP2 (Mus musculus, UniProt O88554); experiment: Steady-state kinetic analysis of the PARP2 enzymatic reaction; assay type: biochemical, murine
# T3 construct: made in house; host or cells: insect cells
# Method: The four efficient inhibitors of PARP1 (compounds 8, 12, 13, and 14) were further examined by detailed kinetic experiments to determine the type of inhibition and the inhibition constants. […] The kinetics experiments of the PARylation reaction were performed at varied concentrations of the NAD^+ substrate and three–four different fixed concentrations of the inhibitor. The kinetic parameters of the reaction (Vmax and KM) were calculated by fitting the Michaelis–Menten equation to the kinetic data. The type of inhibition was determined by analyzing the dependences of Vmax and KM on the concentration of the inhibitor in linearizing coordinates (Figure S3). All the compounds had decreased Vmax and increased KM values as the inhibitor concentration increased (panels A−E), indicating a mixed type of inhibition, which was further evidenced by the double reciprocal plots of kinetic data (panel F). From these experiments, the inhibition constants reflecting the affinity of inhibitors to the NAD^+ binding pocket of free enzymes were determined (Table 2).
# To determine the apparent maximum rate of enzymatic reaction (Vmax), Michaelis constant (KM), and possible inhibition mechanism, steady-state kinetic experiments were performed at […] fixed concentrations of the substrate, in the absence and presence of different fixed concentrations of the inhibitor. The standard reaction mixtures (10 μL) contained 100 μM, 300 μM, 500 μM, 1 mM, or 2 mM NAD^+; a tested PARP1/PARP2 inhibitor specified for each compound (Figure S3); the recombinant human enzyme PARP1 (200 nM) or murine PARP2 (800 nM); and reaction buffer components (specified in the previous subsection). The reaction was performed as described in the previous subsection. The raw data (kinetic curves) were obtained in three independent experiments and statistically processed with OriginPro 8.6.0 software. […]
# F) Graphical representation in double reciprocal plots. […]
# The Ki and Ki(2) values presented in Table 2 in the main text and Table S1 were calculated using the equations: […]
# [5] = target: T4, PARP2-DNA complex (Mus musculus, UniProt O88554); experiment: Fluorescence anisotropy titration of FAM-labeled gap-DNA with PARP2; assay type: binding, murine; settings: 240 µM inhibitor
# T4 construct: made in house; host or cells: insect cells
# Method: as §1
# [6] = target: T4, PARP2-DNA complex; experiment: AutoPARylation-induced dissociation of the PARP2-DNA complex (fluorescence anisotropy kinetics); assay type: biochemical, murine; settings: 240 µM H2N-Mor-U(I) or 800 nM olaparib
# Method: as §1
# T4 sequence (O88554 whole entry, one chain of several): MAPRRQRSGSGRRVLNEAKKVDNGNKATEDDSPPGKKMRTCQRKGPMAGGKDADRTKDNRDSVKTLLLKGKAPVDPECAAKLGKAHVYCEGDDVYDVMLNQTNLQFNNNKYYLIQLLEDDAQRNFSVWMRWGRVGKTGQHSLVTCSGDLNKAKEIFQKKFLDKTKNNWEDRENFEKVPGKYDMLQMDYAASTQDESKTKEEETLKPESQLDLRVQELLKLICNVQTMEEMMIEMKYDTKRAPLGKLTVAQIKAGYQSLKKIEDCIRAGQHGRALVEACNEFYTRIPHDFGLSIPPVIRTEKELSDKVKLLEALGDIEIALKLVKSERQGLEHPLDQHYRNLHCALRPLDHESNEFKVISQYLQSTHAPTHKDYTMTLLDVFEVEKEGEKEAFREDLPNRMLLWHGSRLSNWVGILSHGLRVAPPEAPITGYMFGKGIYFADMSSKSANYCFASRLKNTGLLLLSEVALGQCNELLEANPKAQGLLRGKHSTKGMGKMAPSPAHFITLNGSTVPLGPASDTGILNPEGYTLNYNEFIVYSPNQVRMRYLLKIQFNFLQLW
# T3 sequence (O88554 whole entry): as the sequence (O88554 whole entry, one chain of several) above
# T1 sequence (P09874 whole entry, one chain of several): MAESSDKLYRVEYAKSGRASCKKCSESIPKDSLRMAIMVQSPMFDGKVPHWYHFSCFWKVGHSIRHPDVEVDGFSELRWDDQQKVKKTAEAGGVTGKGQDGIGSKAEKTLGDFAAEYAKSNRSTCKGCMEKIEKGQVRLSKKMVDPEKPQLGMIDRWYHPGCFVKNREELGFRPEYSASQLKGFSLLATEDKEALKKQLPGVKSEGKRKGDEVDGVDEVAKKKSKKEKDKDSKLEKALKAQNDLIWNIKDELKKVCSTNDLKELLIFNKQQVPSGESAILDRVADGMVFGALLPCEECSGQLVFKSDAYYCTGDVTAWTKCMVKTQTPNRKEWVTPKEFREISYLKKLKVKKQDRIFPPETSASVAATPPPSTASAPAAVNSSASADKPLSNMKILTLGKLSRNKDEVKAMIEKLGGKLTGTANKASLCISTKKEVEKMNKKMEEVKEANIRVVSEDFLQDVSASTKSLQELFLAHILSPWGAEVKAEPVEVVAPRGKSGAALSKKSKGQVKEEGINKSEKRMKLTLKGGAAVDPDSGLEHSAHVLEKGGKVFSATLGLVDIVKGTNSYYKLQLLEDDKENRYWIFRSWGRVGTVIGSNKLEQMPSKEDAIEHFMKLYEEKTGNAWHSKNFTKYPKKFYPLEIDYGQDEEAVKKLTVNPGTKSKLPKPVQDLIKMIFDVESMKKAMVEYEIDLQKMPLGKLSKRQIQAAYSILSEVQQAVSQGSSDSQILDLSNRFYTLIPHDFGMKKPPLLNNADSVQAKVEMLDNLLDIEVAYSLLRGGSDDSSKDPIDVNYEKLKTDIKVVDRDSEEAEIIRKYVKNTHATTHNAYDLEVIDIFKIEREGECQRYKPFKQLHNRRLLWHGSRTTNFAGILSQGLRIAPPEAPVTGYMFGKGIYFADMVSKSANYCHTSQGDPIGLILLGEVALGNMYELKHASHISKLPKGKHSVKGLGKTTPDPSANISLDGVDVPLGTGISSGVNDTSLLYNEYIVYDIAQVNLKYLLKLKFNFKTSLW
# T2 sequence (O88554 whole entry): as the sequence (O88554 whole entry, one chain of several) above
Compound,Effect of inhibitor on EC50 of the PARP1–DNA complex [1],Inhibition of dissociation of the PARP1 complex with DNA ([2]; 0.4 mM NAD+),Inhibition of dissociation of the PARP1 complex with DNA ([2]; 1.4 mM NAD+),Impact of HPF1 on the inhibition potency against PARP2 [3],"Type of inhibition ([4]; Vmax decreased, KM increased)","Ki ([4]; mixed-type inhibition, read-out: Ki (affinity for the free enzyme)) [µM]",Ki ([4]; read-out: Ki(2) (affinity for the enzyme complex with NAD+ substrate)) [µM],Effect of inhibitor on the stability of the PARP2–DNA complex [5],Inhibition of dissociation of the PARP2 complex with DNA ([6]; 0.4 mM NAD+),Inhibition of dissociation of the PARP2 complex with DNA ([6]; 1.4 mM NAD+)
Cc1cn([C@H]2CNC[C@@H](CN)O2)c(=O)[nH]c1=O [Compound 8],almost the same,~ 2 fold,~ 1.5 fold,no impact of HPF1,–,–,–,–,–,–
NC[C@@H]1CNC[C@H](n2cc(I)c(=O)[nH]c2=O)O1 [Compound 14],–,–,–,no impact of HPF1,mixed-type inhibition,120 ± 23,400 ± 70,No statistically significant effect,~ 2 fold,~ 1.5 fold
